# Results from patent US20140271470A1, “TARGETED THERANOSTICS FOR METASTATIC PROSTATE CANCER” (priority 2013, published 2014).
# How the values were obtained:
# [1] = biological target: T1, neurotensin receptor 1 (NTR1) (Homo sapiens, UniProt P30989); conditions: combined with radiation; cited from earlier work
# T1 construct: NTR1, which is highly expressed in prostate cancer cells but not in normal prostate epithelial cells; endogenous in cells; PC-3M for the xenograft
# [2] = test system: PC-3M orthotopic human tumor xenografts; conditions: combined with radiation; cited from earlier work
# [3] = test system: human C4-2 prostate cancer xenografts; test: Tumor volume growth of C4-2 xenografts treated with SIPP preparations; assay type: in vivo, nude mice; conditions: tumor volume growth curves
# Source text: Tumor volume growth curves for nude mice bearing human C4-2 prostate cancer xenografts treated with various preparations of SIPPs. (A) Black squares, no treatment controls.
# NF-κB = conditions: cited from earlier work
# T1 sequence (P30989 whole entry): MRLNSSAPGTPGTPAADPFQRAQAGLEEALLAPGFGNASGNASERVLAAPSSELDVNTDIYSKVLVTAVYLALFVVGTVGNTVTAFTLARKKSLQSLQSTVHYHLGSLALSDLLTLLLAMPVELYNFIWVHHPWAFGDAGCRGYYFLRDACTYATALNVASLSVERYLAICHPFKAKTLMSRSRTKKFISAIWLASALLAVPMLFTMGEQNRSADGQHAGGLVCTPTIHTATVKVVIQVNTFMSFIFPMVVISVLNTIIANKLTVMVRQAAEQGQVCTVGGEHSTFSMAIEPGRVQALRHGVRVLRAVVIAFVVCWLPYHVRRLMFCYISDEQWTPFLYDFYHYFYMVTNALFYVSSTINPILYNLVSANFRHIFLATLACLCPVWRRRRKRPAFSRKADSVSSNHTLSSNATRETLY
compound,measurement,setting,value
COc1cccc(OC)c1-c1cc(C(=O)NC2(C(=O)O)C3CC4CC(C3)CC2C4)nn1-c1ccnc2cc(Cl)ccc12 (centres unmarked) [SR48692],apoptotic cell death,[1],increasing apoptotic cell death
same,clonogenic survival,[1],decreasing clonogenic survival
same,radiosensitization of prostate cancer cells,[1],sensitized prostate cancer cells in a dose- and time-dependent manner
same,radiosensitization of xenografts,[2],efficiently radiosensitizedn
same,tumor burden,[2],significantly reduced tumor burden
"CC(=O)O[C@H]1C(=O)[C@@]2(C)[C@H]([C@H](OC(=O)c3ccccc3)[C@]3(O)C[C@H](OC(=O)[C@H](O)[C@@H](NC(=O)c4ccccc4)c4ccccc4)C(C)=C1C3(C)C)[C@]1(OC(C)=O)CO[C@@H]1C[C@@H]2O [Paclitaxel, paclitaxel]",effect on tumor growth,[3],effective
C[C@H]1O[C@@H](O[C@H]2[C@@H](O)C[C@H](O[C@H]3[C@@H](O)C[C@H](O[C@H]4CC[C@@]5(C)[C@H](CC[C@@H]6[C@@H]5C[C@@H](O)[C@]5(C)[C@@H](C7=CC(=O)OC7)CC[C@]65O)C4)O[C@@H]3C)O[C@@H]2C)C[C@H](O)[C@@H]1O [digoxin],NF-κB inhibition,NF-κB,potent inhibitors of NF-κB
C[C@H]1O[C@@H](O[C@H]2[C@@H](O)C[C@H](O[C@H]3[C@@H](O)C[C@H](O[C@H]4CC[C@@]5(C)[C@H](CC[C@@H]6[C@@H]5CC[C@]5(C)[C@@H](C7=CC(=O)OC7)CC[C@]65O)C4)O[C@@H]3C)O[C@@H]2C)C[C@H](O)[C@@H]1O [digitoxin],NF-κB inhibition,NF-κB,potent inhibitors of NF-κB
